Measured values from patent publication US6900219B2, “ABCA-1 elevating compounds” (CV Therapeutics, Inc., priority 2002, dated 2005).

tested on: ABCA-1 gene; assay: compounds tested and found to elevate cellular expression of the ABCA-1 gene (Examples 1-6; test not named); format: cell-based
Procedure: Activity testing is conducted as described in those patents and patent applications referenced above, and in the Examples below, and by methods apparent to one skilled in the art.

Compound | cellular expression of the ABCA-1 gene
Cc1cccc(C)c1NC(=O)c1sc2ccccc2c1Cl [N-(2,6-dimethylphenyl)(3-chlorobenzo[b]thiophen-2-yl)carboxamide] | elevate cellular expression of the ABCA-1 gene
CC(C)(C)c1ccc(C(=O)NC2=NC(=O)CS2)cc1 [[4-(tert-butyl)phenyl]-N-(4-oxo(1,3-thiazolin-2-yl))carboxamide] | elevate cellular expression of the ABCA-1 gene
O=C(Nc1nc(-c2ccc(Cl)cc2)cs1)C1CCCC1 [N-[4-(4-chlorophenyl)(1,3-thiazol-2-yl)]cyclopentylcarboxamide] | elevate cellular expression of the ABCA-1 gene
CCOc1ccc(C(=O)N(Cc2c3ccccc3cc3ccccc23)C(=O)Nc2ccccc2F)cc1 [N-(9-anthrylmethyl)(4-ethoxyphenyl)-N-{[(2-fluorophenyl)amino]carbonyl}-carboxamide] | elevate cellular expression of the ABCA-1 gene
O=C(Nc1nc(-c2ccc(Cl)cc2)cs1)c1cccc(C(F)(F)F)c1 [N-[4-(4-chlorophenyl)(1,3-thiazol-2-yl)][3-(trifluoromethyl)phenyl]carboxamide] | elevate cellular expression of the ABCA-1 gene
N#Cc1ccc(C(=O)Nc2nc(-c3ccc4ccccc4c3)cs2)cc1 [(4-cyanophenyl)-N-(4-(2-naphthyl)(1,3-thiazol-2-yl))carboxamide] | elevate cellular expression of the ABCA-1 gene
O=C(CNC(=O)c1ccccc1F)c1ccc(Cl)cc1 [N-[2-(4-chlorophenyl)-2-oxoethyl](2-fluorophenyl)carboxamide] | elevate cellular expression of the ABCA-1 gene
CCOC(=O)C1=C(NCCc2ccccc2)CCN(C(=O)c2ccc([N+](=O)[O-])cc2Cl)C1 [ethyl 1-[(2-chloro-4-nitrophenyl)carbonyl]-4-[(2-phenylethyl)amino]-1,2,5,6-tetrahydropyridine-3-carboxylate] | elevate cellular expression of the ABCA-1 gene
CCn1c2ccccc2c2cc(NC(=O)c3ccc(F)cc3)ccc21 [N-(9-ethylcarbazol-3-yl)(4-fluorophenyl)carboxamide] | elevate cellular expression of the ABCA-1 gene
CCCCNC(=O)N(Cc1ccco1)C(C)c1nc2cc(Cl)ccc2c(=O)n1-c1ccc(C)cc1 (stereo not shown) [(butylamino)-N-{[7-chloro-3-(4-methylphenyl)-4-oxo(3-hydroquinazolin-2-yl)]ethyl}-N-(2-furylmethyl)carboxamide] | elevate cellular expression of the ABCA-1 gene
COc1cc(OC)cc(C(=O)NC2=NCCS2)c1 [(3,5-dimethoxyphenyl)-N-(1,3-thiazolin-2-yl)carboxamide] | elevate cellular expression of the ABCA-1 gene
O=C1CSC(NC(=O)c2ccc(Cl)c(Cl)c2)=N1 [(3,4-dichlorophenyl)-N-(4-oxo(1,3-thiazolin-2-yl))carboxamide] | elevate cellular expression of the ABCA-1 gene
CCCn1c(C(CC)N(Cc2ccccc2)C(=O)CC(C)CC(C)(C)C)nc2ccccc2c1=O (stereo not shown) [3,5,5-trimethylhexanoic acid benzyl-[1-(4-oxo-3-propyl-3,4-dihydro-quinazolin-2-yl)propyl]-amide] | elevate cellular expression of the ABCA-1 gene
O=C(c1ccc(Br)cc1)N(CCc1ccccc1)Cc1ccc(C(F)(F)F)cc1 [(4-bromophenyl)-N-(2-phenylethyl)-N-{[4-(trifluoromethyl)phenyl]methyl}-carboxamide] | elevate cellular expression of the ABCA-1 gene
CCOC(=O)Cc1csc(NC(=O)Nc2ccccc2F)n1 [ethyl 2-(2-{[(2-fluorophenyl)amino]carbonylamino}-1,3-thiazol-4-yl)acetate] | elevate cellular expression of the ABCA-1 gene
CCCCCNC(=O)c1cnn(-c2nc(-c3ccc(C)cc3)cs2)c1C [{5-methyl-1-[4-(4-methylphenyl)(1,3-thiazol-2-yl)]pyrazol-4-yl}-N-pentylcarboxamide] | elevate cellular expression of the ABCA-1 gene
CCc1c(C(=O)N2CCN(C(=O)C(C)C)C(C)C2)cnn1-c1nc(-c2ccc(OC)cc2)cs1 (stereo not shown) [1-(4-{5-ethyl-1-[4-(4-methoxy-phenyl)-thiazol-2-yl]-1H-pyrazole-4-carbonyl}-2-metyl-piperazin-1-yl)-2-methyl-propan-1-one] | elevate cellular expression of the ABCA-1 gene
6-(2-aminophenyl)-3-(methylethylthio)-2H-1,2,4-triazin-5-one | elevate cellular expression of the ABCA-1 gene
O=C(NCCc1ccccc1F)c1ccc2oc(N3CCCN(C(=O)CCc4c[nH]c5ccccc45)CC3)nc2c1 [N-[2-(2-fluorophenyl)ethyl]{2-[4-(3-indol-3-ylpropanoyl)(1,4-diazaperhydroepinyl)]benzoxazol-5-yl}carboxamide] | elevate cellular expression of the ABCA-1 gene
Cc1cccc(C)c1NC(=O)N(Cc1ccccc1)C(C)c1nc2ccccc2c(=O)n1-c1ccc2ccccc2c1 (stereo not shown) [[(2,6-dimethylphenyl)amino]-N-[(3-(2-naphthyl)-4-oxo(3-hydroquinazolin-2-yl))ethyl]-N-benzylcarboxamide] | elevate cellular expression of the ABCA-1 gene
O=C(CCC1CCCC1)Nc1ccc2c(c1)OCCO2 [N-(2H,3H-benzo[e]1,4-dioxin-6-yl)-3-cyclopentylpropanamide] | elevate cellular expression of the ABCA-1 gene
O=C(Nc1nc2ccccc2s1)c1cnn(Cc2ccccc2)c1 [N-benzothiazol-2-yl[1-benzylpyrazol-4-yl]carboxamide] | elevate cellular expression of the ABCA-1 gene
O=C(Nc1ncc(-c2ccc(F)cc2)s1)c1cccs1 [N-[5-(4-fluorophenyl)(1,3-thiazol-2-yl)]-2-thienylcarboxamide] | elevate cellular expression of the ABCA-1 gene
CCOC(=O)CCN(CCc1ccccc1)C(=O)c1ccc2c(c1)OCO2 [ethyl 3-[2H-benzo[d]1,3-dioxolen-5-yl-N-(2-phenylethyl)carbonylamino]propanoate] | elevate cellular expression of the ABCA-1 gene
CC(C)c1ccc(NC(=O)N(Cc2ccco2)C(C)c2nc3ccccc3c(=O)n2-c2ccc(Cl)cc2)cc1 (stereo not shown) [N-{[3-(4-chlorophenyl)-4-oxo(3-hydroquinazolin-2-yl)]ethyl}-N-(2-furylmethyl){[4-(methylethyl)phenyl]amino}carboxamide] | elevate cellular expression of the ABCA-1 gene
Cc1cccc(NC(=O)c2cc3ccccc3oc2=O)c1 [N-(3-methylphenyl)(2-oxochromen-3-yl)carboxamide] | elevate cellular expression of the ABCA-1 gene
CN(C)c1ccc(CN(C(=O)Nc2ccccc2F)c2ccc3c(c2)CCC3)cc1 [({[4-(dimethylamino)phenyl]methyl}indan-5-ylamino)-N-(2-fluorophenyl)carboxamide] | elevate cellular expression of the ABCA-1 gene
CCOC(=O)C1=C(NCCc2ccccc2)CCN(C(=O)c2ccc(F)cc2)C1 [ethyl 1-[(4-fluorophenyl)carbonyl]-4-[(2-phenylethyl)amino]-1,2,5,6-tetrahydropyridine-3-carboxylate] | elevate cellular expression of the ABCA-1 gene
